# Experiments:
# [1] = Preliminary animal toxicology study; assay type: in vivo; details: dose of about 100 μg
# Long Evans rats = test: CIA in chloroleukemic Long Evans rats receiving multi-course chemotherapy; assay type: in vivo, rat; parameters: protection from CIA: concentration or dose not given beside the values; details: for protection from CIA: both cycles
# HEKa cells [2] = test: Real-time PCR Heat Shock Protein array, calcitriol-treated HEKa cells; assay type: cell-based, human; details: 0.1 μg/mL calcitriol, two independent experiments
# Experimental: The PCR array analysis utilized two groups of genes—those related to Heat Shock Proteins (SABiosciences), and those related to Neuroscience Ion Channels and Transporters (SABioscience). Cell culture: Primary human epidermal keratinocytes (HEKa) were maintained in Epilife Medium (Cascade Biologics, Inc., Portland OR) along with Human Keratinocyte Growth Supplement (Cascade Biologics, Inc., Portland OR). […] D3 treatment of HEKa cells: […] Vehicle control group of cells were treated with 5 mL media containing 1 μL of ethanol. Cells were harvested 3, 6, 16, 24, 48, or 72 hours after the start of the treatment. RNA isolation: Cells were lysed for RNA isolation at different treatment times using the RNeasy Mini kit (Qiagen, Inc., Valencia CA) following the manufacturer's instructions. RNA was quantified by measuring optical density at 260 nm. First Strand Synthesis: […] Real-time PCR: Products from the first strand synthesis were diluted with water, mixed with the SYBR green master mix (SABiosciences., Frederick MD) and loaded onto PCR arrays. Real time PCR was run on the PCR Arrays (Heat Shock Protein Arrays, and Neuroscience and Ion Channel Arrays) (SABiosciences, Frederick MD) on a Biorad CFX96. Data analyses were performed using the PCR array data analysis software available on the SABiosciences website.
# HEKa cells [3] = test: 2-D gel electrophoresis proteomic analysis of calcitriol-treated HEKa cells; assay type: cell-based, human; details: 0.1 μg/mL calcitriol, 3, 6, 24 hours vs control
# Experimental: The cell pellets were then analyzed using proteomic methods, such as 2-D gel and Western blot analysis. […] In all, analysis of about 458 protein spots in the comparative study was performed, comparing the control sample against the 3-, 6-, and 24-hour treatment samples. Six spots showing statistically significant differential changes were identified. These spots were excised, and their protein contents subjected to sequence identification by trypsin digestion and mass spectrometry characterization.
# HEKa cells [4] = test: Antibody microarray (Panorama XP725) of calcitriol-treated HEKa cells; assay type: cell-based, human; details: 24-hour
# Experimental: Briefly, the treated HEKa cells were first harvested and then extracted to obtain a soluble protein supernatant. Two portions of the extracted protein sample (˜1 mg total) from each sample (at 1 mg/mL) were each labeled with fluorescent dye (Cy3 and Cy5, respectively). The excess dye was removed from the protein sample, and the resulting labeled protein samples were used for microarray incubation. To determine the expression level of a particular target protein at a later time point (e.g., at hour 6 or 24) relative to that at an earlier time point (e.g., at hour 3), the samples were labeled by different labels (e.g., 3-hour extract labeled with Cy3, 6-hour or 24-hour extract labeled with Cy5). Then the two labeled samples containing equal amounts of total protein were mixed (e.g., Cy3-labeled 3-hour sample is mixed with Cy5-labeled 6-hour or 24-hour samples, respectively). After incubation with the microarray chip (according to manufactures recommended protocols), the chips were washed and dried. The microarrays were then scanned with a fluorescent laser scanner to measure the relative fluorescence intensity of the Cy3 and Cy5 dyes. If the amount of a particular type of target protein increased (or decreased) over time, more (or less) of the dye associated with the later time point (e.g., Cy5) will be retained by the microarray. […]
# patients = test: Phase I dose-escalation study: safety and tolerability in cancer patients on taxane-based chemotherapy; assay type: in vivo
# Experimental: The dosage will be escalated if the clinical toxicity is declared acceptable (see below). five dose levels will be considered for escalation (10, 20, 40, 60 and 80 μg/mL). Determination of dose limiting toxicity (DLT, defined in section 8.2) will be made during the first 28 days of topical treatment. No intrapatient dose escalation will be performed. […] The dose escalation scheme (Table 8.1) will occur as follows:
# If the patient presents with symptoms of hypercalcemia, serum calcium should be determined and treatment should be stopped immediately. Hypercalcemia will be defined using CTCAE version 4.0 grade 3 (or higher), which is defined as serum calcium >12.5-13.5 mg/dL; >3.1-3.4 mmol/L or ionized calcium >1.6-1.8 mmol/L and hospitalization is indicated. For patients with asymptomatic hypercalcemia determined by elevated serum calcium, their ionized calcium levels will first be checked. If the ionized calcium level is in fact elevated, the study drug will be stopped. If the ionized calcium level is normal, the patient will remain on the study and ionized calcium will be followed rather than serum calcium.
# Each patient underwent PK analysis, adverse event monitoring, patient self-assessment diaries (1-10 scale), and blinded photographic assessments. […] Toxicity was determined on a weekly basis during Cycle 1 (i.e., the first 28 days of topical agent application) and subsequently every four weeks. Patients were managed with adequate safety (adverse event) monitoring and pharmacokinetic (PK) analysis in order to determine levels of exposure.
smiles,measurement,setting,value
"C=C1/C(=C\C=C2/CCC[C@]3(C)[C@@H]([C@H](C)CCCC(C)(C)O)CC[C@@H]23)C[C@@H](O)C[C@@H]1O [Calcitriol, (5Z,7E)-9,10-secocholesta-5,7.10(19Hriene-1 a,33.25-triol]",dermal irritation,[1],no dermal irritation
same,epidermal / dermal penetration,[1],excellent epidermal penetration without substantial dermal penetration
same,ALOPECIA 0 (number of rats),"Long Evans rats; ADM, Paclitaxel and Etoposide, after First Round",40
same,ALOPECIA 0 (number of rats),"Long Evans rats; ADM, Paclitaxel and Etoposide, after Second Round",32
same,ALOPECIA 0 (number of rats),"Long Evans rats; CTX and Doxorubicin (ADM), after First Round",40
same,ALOPECIA 0 (number of rats),"Long Evans rats; CTX and Doxorubicin (ADM), after Second Round",20
same,ALOPECIA 0 (number of rats),"Long Evans rats; CTX, ADM and Cytarabine (ARA-C), after First Round",40
same,ALOPECIA 0 (number of rats),"Long Evans rats; CTX, ADM and Cytarabine (ARA-C), after Second Round",31
same,ALOPECIA 0 (number of rats),"Long Evans rats; CTX, Paclitaxel and Etoposide, after First Round",40
same,ALOPECIA 0 (number of rats),"Long Evans rats; CTX, Paclitaxel and Etoposide, after Second Round",33
same,ALOPECIA 0 (number of rats),"Long Evans rats; Cyclophosphamide (CTX), after First Round of Chemotherapy",40
same,ALOPECIA 0 (number of rats),"Long Evans rats; Cyclophosphamide (CTX), after Second Round of Chemotherapy",10
same,protection from CIA,Long Evans rats; cyclophosphamide and doxorubicin group,100%
same,"extent of alopecia (grade), all rats","Long Evans rats; cyclophosphamide and doxorubicin regimen, after the first round",did not exhibit any signs of alopecia
same,protection from CIA,Long Evans rats; cyclophosphamide group,100%
same,"extent of alopecia (grade), all rats","Long Evans rats; cyclophosphamide regimen, after the first round of chemotherapy",did not exhibit any signs of alopecia
same,protection from CIA,"Long Evans rats; cyclophosphamide, doxorubicin and cytarabine group",100%
same,"extent of alopecia (grade), all rats","Long Evans rats; cyclophosphamide, doxorubicin and cytarabine regimen, after the first round",did not exhibit any signs of alopecia
same,protection from CIA,"Long Evans rats; cyclophosphamide, paclitaxel and etoposide group",100%
same,"extent of alopecia (grade), all rats","Long Evans rats; cyclophosphamide, paclitaxel and etoposide regimen, after the first round",did not exhibit any signs of alopecia
same,protection from CIA,"Long Evans rats; doxorubicin, paclitaxel and etoposide group",100%
same,"extent of alopecia (grade), all rats","Long Evans rats; doxorubicin, paclitaxel and etoposide regimen, after the first round",did not exhibit any signs of alopecia
same,DNAJC6 mRNA Regulation Pattern,HEKa cells [2],Downregulated
same,HSF4 mRNA Regulation Pattern,HEKa cells [2],Upregulated at 48 hours
same,HSPA2 mRNA Regulation Pattern,HEKa cells [2],Upregulated at 48 hours
same,HSPB1 mRNA Regulation Pattern,HEKa cells [2],Down regulated at 48 hours
same,Galectin 1 (LGALS1) Response,HEKa cells [3],up at 6 and 24
same,Glutathione S-transferase (GST) Response,HEKa cells [3],"up at 3, 6, and 24"
same,Keratin 17 (KR17) Response,HEKa cells [3],down at 24 hours
same,S100 A9 (Calprotectin) Response,HEKa cells [3],down at 6 and 24
same,S100 A13 Response,HEKa cells [3],up at 6 and 24
same,proteins significantly upregulated (number),HEKa cells [4],about fifty proteins
same,AEs Related to Study Drug,patients; 5 μg/mL × 1 mL BID,Mild Scalp pain (1)
same,serious adverse events reported (number),patients; all dose levels,25
same,dose limiting toxicities (DLTs),"patients; human, in vivo",No dose limiting toxicities
same,serious adverse events unrelated/unlikely to the study drug,"patients; human, in vivo, 3 months",84%
same,serious adverse events unrelated/unlikely to the study drug (number),"patients; human, in vivo, 3 months",21
same,serious adverse events possibly related to the study drug (number),"patients; one patient, 40 μg/mL, passing a renal calculi",4
same,maximum tolerated dose (MTD),patients; up to 80 μg/mL,not detected

# — patent publication US20230302022A1, “PREVENTING OR MITIGATING CHEMOTHERAPY INDUCED ALOPECIA USING VITAMIN D” (priority 2016, published 2023)
